“And” between values parts separate entries of the source, which are not always exact repeats. Equal entries are not always repeated.
What was measured:
[1] = Malodor evaluation panel, cat urine on cotton swatches; set-up: key to (Score of Ketone) − (Score of Combination) / (score of citric acid) − (score of combination): difference of malodor scores, 1 = very weak to 7 = very strong (control); conditions: for (Score of Ketone) − (Score of Combination) / (score of citric acid) − (score of combination): cat urine malodor, combination with citric acid; for Score of combination 1% + 1% / Score alone 1% (alicyclic ketone): remaining cat urine malodor; for Score of combination 1% + 1%: scale 1-7, ketone 1% + citric acid 1% in spray, average of 14; for Score alone 1% (alicyclic ketone): scale 1 very weak to 7 (control, very strong), ketone 1% in spray, average of 14 panelists
Excerpt: The source of the malodor tested was cat urine. […] A period of three minutes was allowed for the urine to be absorbed by the fabric. Onto each swatch, 3.0 grams of a composition was sprayed. As a control, 3.0 grams of water was sprayed on certain swatches. Each swatch was placed in the middle of a two by two foot (61×61 cm) cubicle and all doors were closed. Actual testing began after thirty minutes. Each member of the panel was asked to sniff the malodor control first and was notified that the control has a rating of 7—indicating very strong malodor. They were then asked to proceed to sniff the other samples and provide a rating for malodor remaining. Thus, the remaining malodor was evaluated on a sliding scale, with 1 being very weak malodor. The panelists were instructed to ignore any fragrance that they may detect and rate only the malodor. […] The fabric spray base was an aqueous solution containing 75% distilled water, 20% ethanol, and 5% of non-ionic surfactant. […] The scores reported are therefore the average of 14 replications. The ionones and irones tested were racemic mixtures of their respective α, β, and γ-isomers. The table sets forth what is believed to be the dominant isomer. Apparent duplications (Tests 5, 6 and 8; Tests 10 and 11) are tests on substances obtained from different sources, and have different mixtures of isomers. […] The ionones tested were mixtures of α, β and γ isomers; the table sets for the dominant isomer.

[2] = Malodor evaluation panel, synthetic bathroom malodor on cotton swatches
Excerpt: A malodor evaluation panel of 14 persons was assembled and asked to evaluate the odor neutralizing effectiveness of citric acid and dihydro-β-ionone, either alone or in combination. The source of the malodor tested was synthetic bathroom malodor.
Swatches of 100% untreated cotton fabric were cut into 15 cm (6-inch) squares and were placed on weighing boats. 0.5 grams of synthetic bathroom malodor was pipetted onto each of the swatches. A period of three minutes was allowed for the malodor to be absorbed by the fabric.
Onto each swatch, 3.0 grams of a composition was sprayed. As a control, 3.0 grams of water was sprayed on certain swatches.
Each swatch was placed in the middle of a two by two foot (61×61 cm) cubicle and all doors were closed. Actual testing began after thirty minutes.
They were then asked to proceed to sniff the other samples and provide a rating for malodor remaining. Thus, the remaining malodor was evaluated on a sliding scale, with 1 being very weak malodor. The panelists were instructed to ignore any fragrance that they may detect and rate only the malodor.
For the spray compositions containing citric acid or dihydro-β-ionone alone, each spray composition (having a total weight of 20.00 g) consisted of:
For the spray composition containing both citric acid and dihydro-β-ionone, the spray composition (having a total weight of 20.00 g) consisted of:
Neodol 91-8 and the fabric spray base were the same as those described in Example 1.
Each panelist tested citric acid, dihydro-β-ionone, and their combinations. The scores reported are therefore the average of 14 replications.
The results are summarized in Table 6, in which the scores reported are the average of 14 replications.

[3] = as above; conditions: for Score of Ketone Alone @ 1%: average of 14; for Score of Combination @ 1% + 1%: ketone 1% + undecylenic acid 1%; for (Score of Acid) − (Score of Combination) / (Score of Ketone) − (Score of Combination): synthetic bathroom malodor; for (Score of Acid) − (Score of Combination): acid = undecylenic acid; for (Score of Ketone) − (Score of Combination): combination with undecylenic acid
[4] = Malodor evaluation panel, cigarette smoke on cotton swatches; conditions: for (Score of Acid) − (Score of Combination) / (Score of Ketone) − (Score of Combination): cigarette smoke malodor; for Score of Ketone Alone @ 1%: average of 14, Table 3
Method: The source of the malodor tested was cigarette smoke. Swatches of 100% untreated cotton fabric were cut into 15 cm (6-inch) squares and were placed in large plastic containers. Two cigarettes were smoked up inside the plastic containers containing the swatches with closed lids. The environment inside each closed container was allowed to equilibrate for 24 hours. Onto each swatch, 3.0 grams of a composition was sprayed. As a control, 3.0 grams of water was sprayed on certain swatches. Each swatch was placed in the middle of a two by two foot (61×61 cm) cubicle and all doors were closed. Actual testing began after thirty minutes. Each member of the panel was asked to sniff the malodor control first and was notified that the control has a rating of 7—indicating very strong malodor. They were then asked to proceed to sniff the other samples and provide a rating for malodor remaining. Thus, the remaining malodor was evaluated on a sliding scale, with 1 being very weak malodor. The panelists were instructed to ignore any fragrance that they may detect and rate only the malodor. […] Neodol 91-8 and the fabric spray base were the same as those described in Example 1.

[5] = remaining synthetic bathroom malodor, scale 1-7, Table 6
[6] = remaining synthetic bathroom malodor, scale 1-7
[7] = remaining cigarette smoke malodor, scale 1-7
[8] = remaining cigarette smoke malodor, scale 1-7, ketone 1% + citric acid 1%

| Molecule | (Score of Ketone) − (Score of Combination) [1] | (score of citric acid) − (score of combination) [1] | Score of combination 1% + 1% [1] | Score alone 1% (alicyclic ketone) [1] | Score of Ketone Alone @ 1% [3, 5] | Score of Combination @ 1% + 1% [3, 6] | (Score of Acid) − (Score of Combination) [3] | (Score of Ketone) − (Score of Combination) [3] | also measured |
| --- | --- | --- | --- | --- | --- | --- | --- | --- | --- |
| CC(=O)CCC1=C(C)CCCC1(C)C [dihydro-β-ionone] | 1.40 | 0.80 | 2.50 | 3.90 | – | – | – | – | Score of Combination @ 1% + 1% ([2]; remaining synthetic bathroom malodor, scale 1-7, ketone 1% + citric acid 1%): 3.60; (Score of Acid) − (Score of Combination) ([2]; synthetic bathroom malodor, acid = citric acid): 1.40; (Score of Ketone) − (Score of Combination) ([2]; synthetic bathroom malodor, combination with citric acid): 0.10; Score of Ketone Alone @ 1% ([3]; remaining synthetic bathroom malodor, scale 1-7, Table 5): 3.70 |
| CC(=O)/C=C/C1=C(C)CCCC1(C)C [β-ionone] | 0.70 | 1.00 | 3.10 | 3.80 | 4.60 | 3.30 | 1.80 | 1.30 | – |
| CC(=O)/C=C/C1C(C)=CCCC1(C)C (stereo not drawn) [α-ionone] | 1.10 | 0.10 | 3.10 | 4.20 | – | – | – | – | – |
| CC(C)(C)C1CCCCC1=O (centres unmarked) [2-tert-butylcyclohexanone] | – | – | – | – | 4.50 | 4.10 | 0.20 | 0.40 | – |
| C=CCCCCCCCCC(=O)O [undecylenic acid] | – | – | – | – | – | – | – | – | Score of Undecylenic Acid @ 1% ([4]; remaining cigarette smoke malodor, scale 1-7, undecylenic acid alone): 4.20; Score of Undecylenic Acid @ 1% ([3]; remaining synthetic bathroom malodor, scale 1-7, undecylenic acid alone, in the test of that line): 5.00 and 4.30 and 5.10 and 5.20 |
| methyl α-ionone | – | – | – | – | 3.80 | 3.40 | 1.60 | 0.40 | (Score of Acid) − (Score of Combination) ([4]; acid = citric acid): 1.10; (Score of Acid) − (Score of Combination) ([4]; acid = undecylenic acid): 1.40; (Score of Ketone) − (Score of Combination) ([4]; combination with citric acid): 0.50; (Score of Ketone) − (Score of Combination) ([4]; combination with undecylenic acid): 0.10; Score of Ketone Alone @ 1% [4, 7]: 4.20; Score of Combination @ 1% + 1% [4, 8]: 3.70; Score of Combination @ 1% + 1% ([4]; remaining cigarette smoke malodor, scale 1-7, ketone 1% + undecylenic acid 1%): 2.80 |
| citric acid | – | – | – | – | – | – | – | – | Score of Citric Acid @ 1% ([4]; remaining cigarette smoke malodor, scale 1-7, citric acid alone, in the test of that line): 3.90 and 4.80; Score of Citric Acid @ 1% ([2]; remaining synthetic bathroom malodor, scale 1-7, citric acid alone): 5.00 |
| CC(=O)/C=C/C1C(C)=CCC(C)C1(C)C (stereo not drawn) [α-irone] | 0.20 | 0.00 | 3.70 | 3.90 | – | – | – | – | – |
| CCC(C)(C)C1CCC(=O)CC1 [4-tert-pentylcyclohexanone] | 0.60 | 0.50 | 2.90 | 3.50 | – | – | – | – | (Score of Acid) − (Score of Combination) ([4]; acid = citric acid): 0.80; (Score of Ketone) − (Score of Combination) ([4]; combination with citric acid): 0.30; Score of Ketone Alone @ 1% [4, 7]: 3.40; Score of Combination @ 1% + 1% [4, 8]: 3.10 |
| CCC(=O)C=CC1C(C)=CCCC1(C)C (centres unmarked) [1-(2,6,6-trimethyl-2-cyclohexen-1-yl)pent-1-en-3-one] | – | – | – | – | 2.80 | 2.70 | 2.50 | 0.10 | – |
| CCC(=O)/C=C/C1=C(C)CCCC1(C)C [methyl β-ionone] | 0.10 | 0.90 | 3.40 | 3.50 | – | – | – | – | – |

— US9114180B2, “Malodor neutralizing compositions containing acids and alicyclic ketones” (Robertet, Inc., priority 2012, dated 2015)
